The values that follow come from US8759363B2, “Quinazoline-based T cell proliferation inhibitors” (Yissum Research Development Company of the Hebrew …, priority 2010, dated 2014).

The subject of one experiment is SLP-76. Put plainly: SLP-76 tyrosine phosphorylation in Jurkat cells, immunoprecipitation and western blot. The conditions noted are these: Jurkat cells treated 16 h, up to 1 μM. The experiment is classed as cell-based, human. The procedure: Jurkat cells were washed in PBS containing Ca^2+ and Mg^2+ (Biological Industries, Beit Haemek), preheated to 37° C. for 15 min, and were either mock stimulated with PBS, or were stimulated for 1 minute with C305 (1:500). Cells were then collected and lysed at a concentration of 2×10^7 cells/ml in cold lysis buffer containing 1% NP-40, 10 mM Tris (pH 7.8), 150 mM NaCl, 1 mM phenylmethylsulfonyl fluoride (PMSF), 2 μg/ml pepstatin A, 1 μg/ml leupeptin, 10 mM sodium pyrophosphate, 0.4 mM EDTA, 0.4 mM sodium orthovanadate, and 50 mM NaF, 50 mM beta-glycerol phosphate pH 7.5 and 20 mM sodium pyrophosphate pH 7.5. After 20 min at 4° C., the lysates were cleared by centrifugation in a microfuge (Eppendorf, centrifuge 5427R) at 16,000×g for 10 min at 4° C. The supernatants were used directly for immunoprecipitation.
Western blots were prepared on nitrocellulose using standard techniques. Membranes were blocked in TBST buffer (10 mM Tris-HCl, pH 7.4 (TBS), 0.2% Tween 20, 170 mM NaCl) containing 5% low-fat milk, then probed overnight with the appropriate primary antibody. […]
Jurkat cells were treated with 2 for 16 h, and SLP-76 phosphorylation was measured by immunoprecipitation of SLP-76 protein followed by western blotting with an antibody to the phosphorylated tyrosines of the protein (FIG. 6A). […]

A further experiment has as its system OT1 (resting) cells. Put plainly: MLR with resting control cells, resting OT1 cells. The experiment is classed as cell-based, mouse. As to conditions: 0.5 μM, 72 h MLR with IL-7; no inhibitor 2459. An excerpt: The aim of this test was to determine whether 2 affects only the proliferating cells or there is a general mechanism affecting all cell numbers. For this purpose we mixed 3 cell types: […]: BALB/c, 2C and OT1; […]: CB6F1, TEA and OT2. The OT1 and OT2 are splenocytes that were isolated from OT1 and OT2 mice (Jackson Laboratories, Bar Harbor, Me.),
Thus, the ability to monitor the fate of proliferation and resting cells by FACS was enabled due to the use of the MLR described above for CD4+ and CD8+ and the addition of OT2 and OT1 splenocytes, respectively.
Proliferating cells often secrete cytokines that induce survival of neighbouring cells; since the proliferation was expected to be inhibited we added 50 ng/ml of IL-7. This concentration is sufficient to keep the cells alive, but not to induce proliferation.
Irradiated Balb splenocytes were incubated for 72 h with 2C, and OT1 splenocytes in the presence of IL-7 W/O inhibitor.
The CD4+ and CD8+ were stimulated to proliferate, whereas in the absence of specific stimuli the OT1 and OT2 cell populations were resting, and theses cells were kept alive by the administration of IL-7. […] The number of 2C and OT1 cells that were treated with 0.5 μM 2 was 286 and 1148, respectively, while the number of 2C and OT1 cells that were treated with 0.5 μM 21 (control) was 4767 and 2468, respectively. This is depicted as a bar-graph in FIG. 8C.

Regarding `COc1cc(-c2nc(Nc3ccc(C)cc3)c3ccccc3n2)cc(OC)c1OC` [Compound 2, N-p-tolyl-2-(3,4,5-trimethoxyphenyl)quinazolin-4-amine], in the experiment with SLP-76, the “tyrosine phosphorylation of SLP-76” value was “reduced but not abolished”. For the same molecule, the “number of OT1 (resting) cells” value with OT1 (resting) cells turned out to be 1148.
